Measurements as given in PMC11487390, “Design and Synthesis of 1,3-Diarylpyrazoles and Investigation of Their Cytotoxicity and Antiparasitic Profile” (International Journal of Molecular Sciences, 2024).
Counter-ions that a name gives are not always drawn.

Key:
[1] = Cytotoxicity assay, MRC-5SV2 cells, resazurin, 3 days; assay type: cell-based; details: human, MRC-5 cells, highest concentration 64 µM
Description: The series of final products (13–69) was investigated in vitro on the human fetal lung fibroblast cell line MRC-5 (Table 1) to assess cytotoxicity toward normal (i.e., non-malignant) human cells. […] As explained earlier, these are important pathogens for humans or cattle (T. b. brucei) and a persistent need for new therapeutics exists for these parasites. As a part of the antiparasitic tests, cytotoxicity against primary mouse macrophages (PMMs) was also evaluated. These murine cells serve as host cells for parasites in the L. infantum assay. Therefore, the murine macrophage assay not only offers additional cytotoxicological insight but is also essential to interpreting the readout of the L. infantum assay.
(§1) The MRC-5SV2 human lung fibroblast cell line was cultured in MEM + Earle’s salts-medium, supplemented with 2 mM L-glutamine, 16.5 mM NaHCO3, and 5% inactivated fetal calf serum. For evaluating the antileishmanial activity, the L. infantum MHOM/MA(BE)/67 strain was used. This strain was maintained in a Golden hamster (Mesocricetus auratus). Amastigotes were collected from the spleen of an infected donor hamster using differential centrifugation. Primary peritoneal mouse macrophages were used as host cells and were collected 2 days after peritoneal stimulation with a 2% potato starch suspension. For the intracellular T. cruzi assays, the Tulahuen CL2 strain was used that expresses β-galactosidase. The strain was maintained in MRC-5SV2 cells in MEM medium. The T. b. brucei Squib 427 strain or T. b. rhodesiense STIB-900 strain was used for screening against the extracellular African trypanosomes. The strains were maintained in Hirumi’s Modified Iscove’s medium-9 (HMI-9), supplemented with 10% inactivated fetal calf serum. All cultures and assays were performed at 37 °C with 5% CO2.
(§2) Compound stock solutions were prepared in 100% DMSO at 20 mM. The compounds were serially pre-diluted by robotic plate production (4-fold) in DMSO followed by a further (intermediate) dilution in demineralized water to assure a final in-test DMSO concentration of <1%. Identical test plates containing 10 µL of the different concentrations of each compound were produced for the different assays. For the cytotoxicity assays, 5 concentrations per compound were tested (64–16–4–1–0.25 µM). For the parasitic assays, 10 concentrations per compound were tested, ranging from 64 µM to 0.2 nM.
Assays were performed in sterile 96-well microtiter plates, each well containing 10 µL of the watery compound dilutions together with 190 µL of MRC-5SV2 inoculum (1.5 × 10^5 cells/mL). Cell growth was compared to untreated control wells (100% cell growth) and medium-control wells (0% cell growth). After 3 days incubation, MRC-5 viability was assessed fluorimetrically after addition of 50 μL resazurin per well (final concentration of 10 µg mL^−1). After 4 h at 37 °C, fluorescence was measured (λex 550 nm, λem 590 nm). The results were expressed as % reduction in cell growth/viability compared to positive (100% growth–0% inhibition) and negative (0% growth–100% inhibition) control wells from which EC50 values (50% effective concentrations) were derived using an excel macro that calculates the interpolation of the concentrations corresponding to the flanking points, just above and just below 50% inhibition.

[2] = system: Trypanosoma cruzi Tulahuen CL2 strain; assay: Intracellular T. cruzi assay in MRC-5 cells (β-galactosidase/CPRG, 7 days); assay type: cell-based; details: Trypanosoma cruzi, TULAHUEN, MRC5, 168 h, intracellular in MRC-5 cells
Description: as §1, §2
MRC-5 cells were infected in 96-well plates using a harvested T. cruzi inoculum (4 × 10^3 MRC-5 cells/well + 4 × 10^4 parasites/well) and exposed to 10 µL of the compound dilutions (200 µL/well total volume). Parasite growth determined after 7 days of incubation and compared to untreated infected controls following the addition of the substrate CPRG (chlorophenolred ß-D-galactopyranoside): 50 µL/well of a stock solution containing 15.2 mg CPRG + 250 µL Nonidet in 100 mL PBS. The absorbance was measured spectrophotometrically at 540 nm after 4 h incubation at 37 °C and EC50 values were calculated.

[3] = system: L. infantum MHOM/MA(BE)/67 strain; assay: L. infantum intracellular amastigote assay in PMM (Giemsa, 5 days); assay type: cell-based, Leishmania infantum; details: Leishmania infantum, 120 h, amastigotes in PMM, 5 days; read-out: L. inf. (EC50)
Description: as §1, §2
Primary peritoneal mouse macrophages (PMMs) were prepared in RPMI-1640 medium, supplemented with 2 mM L-glutamine, 16.5 mM NaHCO3, and 5% inactivated fetal calf serum. The macrophages are infected after 48 h with spleen-derived L. infantum amastigotes (3 × 10^4 PMM + 4.5 × 10^5 parasites/well). The compounds were added after 2 h of infection. After 5 days incubation, parasite burdens (mean number of amastigotes/macrophage) were assessed microscopically after staining with a 10% Giemsa solution and EC50 values were calculated.

[4] = system: T. b. brucei Squib 427 strain; assay: T. b. brucei growth assay (resazurin, 3 days); assay type: cell-based, Trypanosoma brucei brucei; details: Trypanosoma brucei, 72 h, 3 days; read-out: T. b. bruc. (EC50)
Description: as §1, §2
(§3) Parasite suspensions (1.5 × 10^4 T. b. brucei/well or 4 × 10^3 T. b. rhodesiense/well) in HMI-9 medium were exposed in a total volume of 200 µL to 10 µL of the compound dilutions Parasite growth was assessed fluorimetrically after 3 days of incubation by the addition of 50 µL resazurin per well. After 6 h (T. b. rhodesiense) or 24 h (T. b. brucei) at 37 °C, fluorescence was measured (λex 550 nm, λem 590 nm), from which viability and EC50 values could be determined.

[5] = system: T. b. rhodesiense STIB-900 strain; assay: T. b. rhodesiense growth assay (resazurin, 3 days); assay type: cell-based, Trypanosoma brucei rhodesiense; details: Trypanosoma brucei, RHODESIENSE, 72 h, 3 days; read-out: T. b. rhod. (EC50)
Description: as §1, §2, §3

[6] = MRC-5SV2 human lung fibroblast cells

Structure (SMILES)	EC50 at 3 days [1, 6]	also measured
c1ccc(CNCc2cn(-c3ccccc3)nc2-c2ccc3c(c2)OCCO3)cc1 [Compound 15, N-benzyl-1-(3-(2,3-dihydrobenzo[b][1,4]dioxin-6-yl)-1-phenyl-1H-pyrazol-4-yl)methanamine hydrochloride]	5.42 µM	
Fc1ccc(CNCc2cn(-c3ccccc3)nc2-c2ccc3c(c2)OCCO3)cc1 [Compound 16, 1-(3-(2,3-dihydrobenzo[b][1,4]dioxin-6-yl)-1-phenyl-1H-pyrazol-4-yl)-N-(4-fluorobenzyl)methanamine hydrochloride]	6.65 µM	
c1ccc(CCNCc2cn(-c3ccccc3)nc2-c2ccc3c(c2)OCCO3)cc1 [Compound 17, N-((3-(2,3-dihydrobenzo[b][1,4]dioxin-6-yl)-1-phenyl-1H-pyrazol-4-yl)methyl)-2-phenylethan-1-amine hydrochloride]	0.56 µM	
c1ccc(-n2cc(CNCCc3cccnc3)c(-c3ccc4c(c3)OCCO4)n2)cc1 [Compound 20, N-((3-(2,3-dihydrobenzo[b][1,4]dioxin-6-yl)-1-phenyl-1H-pyrazol-4-yl)methyl)-2-(pyridin-3-yl)ethan-1-amine hydrochloride]	8.95 µM	
c1ccc(-n2cc(CN3CCCC3)c(-c3ccc4c(c3)OCCO4)n2)cc1 [Compound 23, 3-(2,3-dihydrobenzo[b][1,4]dioxin-6-yl)-1-phenyl-4-(pyrrolidin-1-ylmethyl)-1H-pyrazole oxalate]	18.2 µM	
CN1CCN(Cc2cn(-c3ccccc3)nc2-c2ccc3c(c2)OCCO3)CC1 [Compound 24, 1-((3-(2,3-dihydrobenzo[b][1,4]dioxin-6-yl)-1-phenyl-1H-pyrazol-4-yl)methyl)-4-methylpiperazine]	18.2 µM	
CN1CCN(CCNCc2cn(-c3ccccc3)nc2-c2ccc3c(c2)OCCO3)CC1 [Compound 27, N-((3-(2,3-dihydrobenzo[b][1,4]dioxin-6-yl)-1-phenyl-1H-pyrazol-4-yl)methyl)-2-(4-methylpiperazin-1-yl)ethan-1-amine trihydrochloride]	6.94 µM	
O=C(Nc1ccccc1)c1cn(-c2ccccc2)nc1-c1ccc2c(c1)OCCO2 [Compound 30, 3-(2,3-dihydrobenzo[b][1,4]dioxin-6-yl)-N,1-diphenyl-1H-pyrazole-4-carboxamide]	9.19 µM	
O=C(NCCc1ccccc1)c1cn(-c2ccccc2)nc1-c1ccc2c(c1)OCCO2 [Compound 34, 3-(2,3-dihydrobenzo[b][1,4]dioxin-6-yl)-N-phenethyl-1-phenyl-1H-pyrazole-4-carboxamide]	1.54 µM	EC50 [2]: > 64 µM; EC50 [3]: > 64 µM; EC50 [4]: > 64 µM; EC50 [5]: 4.74 µM
O=C(NCCN1CCCC1)c1cn(-c2ccccc2)nc1-c1ccc2c(c1)OCCO2 [Compound 42, 3-(2,3-dihydrobenzo[b][1,4]dioxin-6-yl)-1-phenyl-N-(2-(pyrrolidin-1-yl)ethyl)-1H-pyrazole-4-carboxamide oxalate]	28 µM	EC50 [2]: 21.7 µM; EC50 [3]: 27.3 µM; EC50 [4]: 7.15 µM; EC50 [5]: 6.43 µM
CN1CCN(CCNC(=O)c2cn(-c3ccccc3)nc2-c2ccc3c(c2)OCCO3)CC1 [Compound 43, 3-(2,3-dihydrobenzo[b][1,4]dioxin-6-yl)-N-(2-(4-methylpiperazin-1-yl)ethyl)-1-phenyl-1H-pyrazole-4-carboxamide]	19 µM	
Fc1ccc(Cc2cn(-c3ccccc3)nc2-c2ccc3c(c2)OCCO3)cc1 [Compound 51, 3-(2,3-dihydrobenzo[b][1,4]dioxin-6-yl)-4-(4-fluorobenzyl)-1-phenyl-1H-pyrazole]	> 64 µM	
Fc1ccc(CNCc2cn(-c3ccccc3)nc2-c2ccc3c(c2)OCO3)cc1 [Compound 55, 1-(3-(benzo[d] [1,3]dioxol-5-yl)-1-phenyl-1H-pyrazol-4-yl)-N-(4-fluorobenzyl)methanamine hydrochloride]	1 µM	
Fc1ccc(CCNCc2cn(-c3ccccc3)nc2-c2ccc3c(c2)OCO3)cc1 [Compound 56, N-((3-(benzo[d] [1,3]dioxol-5-yl)-1-phenyl-1H-pyrazol-4-yl)methyl)-2-(4-fluorophenyl)ethan-1-amine hydrochloride]		EC50 at 3 days [1]: 6.65 µM
c1ccc(-n2cc(CNCCc3ccncc3)c(-c3ccc4c(c3)OCO4)n2)cc1 [Compound 57, N-((3-(benzo[d] [1,3]dioxol-5-yl)-1-phenyl-1H-pyrazol-4-yl)methyl)-2-(pyridin-4-yl)ethan-1-amine hydrochloride]	4 µM	
c1ccc(-n2cc(CNCCc3cccnc3)c(-c3ccc4c(c3)OCO4)n2)cc1 [Compound 58, N-((3-(benzo[d] [1,3]dioxol-5-yl)-1-phenyl-1H-pyrazol-4-yl)methyl)-2-(pyridin-3-yl)ethan-1-amine hydrochloride]	19.4 µM	
c1ccc(-n2cc(CNCCN3CCOCC3)c(-c3ccc4c(c3)OCO4)n2)cc1 [Compound 61, N-((3-(benzo[d] [1,3]dioxol-5-yl)-1-phenyl-1H-pyrazol-4-yl)methyl)-2-morpholinoethan-1-amine dihydrochloride]	17.1 µM	
COc1ccc(-c2nn(-c3ccccc3)cc2CNCCc2ccncc2)cc1 [Compound 62, N-((3-(4-methoxyphenyl)-1-phenyl-1H-pyrazol-4-yl)methyl)-2-(pyridin-4-yl)ethan-1-amine hydrochloride]	9.66 µM	
COc1ccc(-c2nn(-c3ccccc3)cc2CNCCc2cccnc2)cc1 [Compound 63, N-((3-(4-methoxyphenyl)-1-phenyl-1H-pyrazol-4-yl)methyl)-2-(pyridin-3-yl)ethan-1-amine hydrochloride]	16.4 µM	
COc1ccc(-c2nn(-c3ccccc3)cc2CNCCc2ccc(F)cc2)cc1OC [Compound 67, N-((3-(3,4-dimethoxyphenyl)-1-phenyl-1H-pyrazol-4-yl)methyl)-2-(4-fluorophenyl)ethan-1-amine hydrochloride]	1.22 µM	
